Read-outs that look alike come from different tables or passages of the source.
Legend:
[1] = system: HCV replicon (strain 1b) in HUH-7 cells; test: HCV replicon FRET assay; format: cell-based, Hepatitis C virus
[2] = target: T1, HCV NS3/4A protease complex, BMS strain (UniProt P27958, species not given/STRAIN_BMS); test: FRET peptide assay to monitor HCV NS3/4A proteolytic activity (BMS strain); format: biochemical, Hepatitis C virus (genotype 1a); conditions: read-out: HCV Protease (IC50), NS3/4A BMS strain
T1 construct: other: NS3/4A BMS strain; activity range class; numeric values, unit not given; said of H77 and J4L6S; fused on or other part: A three-lysine solubilising tail at the C-terminus of NS4A; A His tag is implied by the pET21b vector and Ni-NTA purification; Both are printed for the H77 and J4L6S constructs and apply to BMS by inference
Method in brief: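 Purified recombinant NS3/4A complex from genotype 1a BMS strain, 2-3 nM final, with RET S1 EDANS/DABCYL depsipeptide substrate at 2 μM final in HEPES pH 7.5, NaCl, Triton, glycerol, βME. Cleavage followed in real time by fluorescence. For high-potency compounds: 50 μg/ml BSA added, protease lowered to 300 pM.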

[3] = Hepatitis C virus, Huh-7, read-out: HCV Pro Replicon (EC50), HCV replicon cell assay, activity range class
[4] = Hepatitis C virus, Huh-7, read-out: HCV Pro Replicon (EC50), HCV replicon cell assay, numeric values, unit inferred

T1 sequence (P27958 1027-1657, change not shown, one chain of several): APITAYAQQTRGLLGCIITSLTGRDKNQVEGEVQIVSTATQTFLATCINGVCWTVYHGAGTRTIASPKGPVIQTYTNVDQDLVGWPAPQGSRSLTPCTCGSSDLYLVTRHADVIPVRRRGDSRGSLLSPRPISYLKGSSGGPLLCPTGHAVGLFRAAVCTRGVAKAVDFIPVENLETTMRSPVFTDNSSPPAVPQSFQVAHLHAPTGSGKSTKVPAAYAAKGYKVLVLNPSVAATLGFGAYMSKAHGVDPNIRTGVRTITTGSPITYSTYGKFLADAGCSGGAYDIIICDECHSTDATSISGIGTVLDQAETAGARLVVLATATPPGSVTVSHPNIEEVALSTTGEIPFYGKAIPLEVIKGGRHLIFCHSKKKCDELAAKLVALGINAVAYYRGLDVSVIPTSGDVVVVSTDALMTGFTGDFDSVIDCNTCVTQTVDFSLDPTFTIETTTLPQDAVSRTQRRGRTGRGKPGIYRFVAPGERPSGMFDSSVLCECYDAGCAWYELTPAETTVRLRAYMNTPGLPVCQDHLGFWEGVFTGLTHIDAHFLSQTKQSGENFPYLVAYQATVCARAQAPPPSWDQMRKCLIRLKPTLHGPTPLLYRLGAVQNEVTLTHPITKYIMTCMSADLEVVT

Row | SMILES | EC50 [1, 3] | IC50 ([2]; activity range class) | EC50 ([1]; read-out: HCV Pro Replicon (EC50), HCV replicon cell assay, activity range class) | EC50 [1, 4] | IC50 ([2]; numeric values, unit inferred)
1 | C=C[C@@H]1C[C@]1(NC(=O)[C@@H]1C[C@@H](Oc2nccc3cc(OC)ccc23)CN1C(=O)[C@H](Nc1ccccn1)C(C)(C)C)C(=O)NS(=O)(=O)C1CC1 [12 second isomer, 3-methyl-N-2-pyridinyl-D-valyl-(4R)—N-((1R,2S)-1-((cyclopropylsulfonyl)carbamoyl)-2-vinylcyclopropyl)-4-((6-methoxy-1-isoquinolinyl)oxy)-L-prolinamide] | 100 to 1000 nM | 20 to 200 nM | – | – | –
2 | C=C[C@@H]1C[C@]1(NC(=O)[C@@H]1C[C@@H](Oc2ncc(OC)c3ccc(Cl)cc23)CN1C(=O)[C@H](Nc1cccc(S(=O)(=O)NC(C)(C)C)c1)C(C)(C)C)C(=O)NS(=O)(=O)C1CC1 [206 second isomer, N-(3-(tert-butylsulfamoyl)phenyl)-3-methyl-D-valyl-(4R)-4-((7-chloro-4-methoxy-1-isoquinolinyl)oxy)-N-((1R,2S)-1-((cyclopropylsulfonyl)carbamoyl)-2-vinylcyclopropyl)-L-prolinamide] | > 1000 nM | > 200 nM | – | – | –
3 | C=C[C@@H]1C[C@]1(NC(=O)[C@@H]1C[C@@H](Oc2ncc(OC)c3ccc(Cl)cc23)CN1C(=O)[C@H](Nc1cccc(S(=O)(=O)N(C)C)c1)C(C)(C)C)C(=O)NS(=O)(=O)C1CC1 [219 second isomer, N-(3-(dimethylsulfamoyl)phenyl)-3-methyl-D-valyl-(4R)-4-((7-chloro-4-methoxy-1-isoquinolinyl)oxy)-N-((1R,2S)-1-((cyclopropylsulfonyl)carbamoyl)-2-vinylcyclopropyl)-L-prolinamide] | 3 to 100 nM | 0.6 to 20 nM | – | – | –
4 | C=C[C@@H]1C[C@]1(NC(=O)[C@@H]1C[C@@H](Oc2nccc3cc(OC)ccc23)CN1C(=O)C(Nc1cc(C)cc(C)n1)C(C)C)C(=O)NS(=O)(=O)N(C)C (single isomer, unassigned) [Compound 16] | 3 to 100 nM | 0.6 to 20 nM | – | – | –
5 | C=C[C@@H]1C[C@]1(NC(=O)[C@@H]1C[C@@H](Oc2ncc(OC)c3ccc(Cl)cc23)CN1C(=O)[C@@H](Nc1ccc(S(=O)(=O)N(C)C)cc1)C(C)(C)C)C(=O)NS(=O)(=O)C1CC1 [224 first isomer, N-(4-(dimethylsulfamoyl)phenyl)-3-methyl-L-valyl-(4R)-4-((7-chloro-4-methoxy-1-isoquinolinyl)oxy)-N-((1R,2S)-1-((cyclopropylsulfonyl)carbamoyl)-2-vinylcyclopropyl)-L-prolinamide] | 100 to 1000 nM | 0.6 to 20 nM | – | – | –
6 | C=C[C@@H]1C[C@]1(NC(=O)[C@@H]1C[C@@H](Oc2ncc(OC)c3ccc(Cl)cc23)CN1C(=O)[C@H](Nc1cccc(S(N)(=O)=O)c1)C(C)(C)C)C(=O)NS(=O)(=O)C1CC1 [207 second isomer, 3-methyl-N-(3-sulfamoylphenyl)-D-valyl-(4R)-4-((7-chloro-4-methoxy-1-isoquinolinyl)oxy)-N-((1R,2S)-1-((cyclopropylsulfonyl)carbamoyl)-2-vinylcyclopropyl)-L-prolinamide] | > 1000 nM | > 200 nM | – | – | –
7 | C=C[C@@H]1C[C@]1(NC(=O)[C@@H]1C[C@@H](Oc2nc(OC)cc3cc(OC)ccc23)CN1C(=O)C(Nc1ccccc1)C(C)(C)C)C(=O)NS(=O)(=O)C1CC1 (single isomer, unassigned) [20 second isomer] | – | 20 to 200 nM | 100 to 1000 nM | – | –
8 | C=C[C@@H]1C[C@]1(NC(=O)[C@@H]1C[C@@H](Oc2nc(N(C)C)cc3c(OC)cccc23)CN1C(=O)C(Nc1cccc(C)n1)C(C)(C)C)C(=O)NS(=O)(=O)C1CC1 (single isomer, unassigned) [Compound 38B] | – | – | – | 7710 nM | 5000 nM
9 | C=C[C@@H]1C[C@]1(NC(=O)[C@@H]1C[C@@H](Oc2ncc(OC)c3ccc(Cl)cc23)CN1C(=O)[C@H](Nc1cccc(C(=O)O)c1)C(C)(C)C)C(=O)NS(=O)(=O)C1CC1 [211 second isomer, N-(3-carboxyphenyl)-3-methyl-D-valyl-(4R)-4-((7-chloro-4-methoxy-1-isoquinolinyl)oxy)-N-((1R,2S)-1-((cyclopropylsulfonyl)carbamoyl)-2-vinylcyclopropyl)-L-prolinamide] | 3 to 100 nM | > 200 nM | – | – | –
10 | C=C[C@@H]1C[C@]1(NC(=O)[C@@H]1C[C@@H](Oc2ncc(OC)c3ccc(Cl)cc23)CN1C(=O)C(Nc1cccc(OC)c1)C(C)(C)C)C(=O)NS(=O)(=O)C1CC1 (single isomer, unassigned) [Compound 201B] | 3 to 100 nM | 20 to 200 nM | – | – | –
11 | C=C[C@@H]1C[C@]1(NC(=O)[C@@H]1C[C@@H](Oc2ncc(OC)c3ccc(Cl)cc23)CN1C(=O)C(Nc1cccc(OC)c1)C(C)(C)C)C(=O)NS(=O)(=O)C1CC1 (single isomer, unassigned) [Compound 201A] | – | – | – | 4.23 nM | 4 nM
12 | C=C[C@@H]1C[C@]1(NC(=O)[C@@H]1C[C@@H](Oc2ncc(OC)c3ccc(Cl)cc23)CN1C(=O)[C@H](Nc1ccc(S(=O)(=O)NCC)cc1)C(C)(C)C)C(=O)NS(=O)(=O)C1CC1 [223 second isomer, N-(4-(ethylsulfamoyl)phenyl)-3-methyl-D-valyl-(4R)-4-((7-chloro-4-methoxy-1-isoquinolinyl)oxy)-N-((1R,2S)-1-((cyclopropylsulfonyl)carbamoyl)-2-vinylcyclopropyl)-L-prolinamide] | > 1000 nM | > 200 nM | – | – | –
13 | C=C[C@@H]1C[C@]1(NC(=O)[C@@H]1C[C@@H](Oc2nccc3cc(OC)ccc23)CN1C(=O)[C@@H](Nc1ccccn1)C(C)(C)C)C(=O)NS(=O)(=O)C1CC1 [12 first isomer, 3-methyl-N-2-pyridinyl-L-valyl-(4R)—N-((1R,2S)-1-((cyclopropylsulfonyl)carbamoyl)-2-vinylcyclopropyl)-4-((6-methoxy-1-isoquinolinyl)oxy)-L-prolinamide] | 3 to 100 nM | 0.6 to 20 nM | – | – | –
14 | C=C[C@@H]1C[C@]1(NC(=O)[C@@H]1C[C@@H](Oc2ncc(OC)c3ccc(Cl)cc23)CN1C(=O)[C@@H](Nc1cccc(S(=O)(=O)N(C)C)c1)C(C)(C)C)C(=O)NS(=O)(=O)C1CC1 [219 first isomer, N-(3-(dimethylsulfamoyl)phenyl)-3-methyl-L-valyl-(4R)-4-((7-chloro-4-methoxy-1-isoquinolinyl)oxy)-N-((1R,2S)-1-((cyclopropylsulfonyl)carbamoyl)-2-vinylcyclopropyl)-L-prolinamide] | > 1000 nM | > 200 nM | – | – | –
15 | C=C[C@@H]1C[C@]1(NC(=O)[C@@H]1C[C@@H](Oc2nccc3cc(OC)ccc23)CN1C(=O)[C@@H](NC1=NCCCS1)C(C)(C)C)C(=O)NS(=O)(=O)C1CC1 [Compound 36, N-(5,6-dihydro-4H-1,3-thiazin-2-yl)-3-methyl-L-valyl-(4R)—N-((1R,2S)-1-((cyclopropylsulfonyl)carbamoyl)-2-vinylcyclopropyl)-4-((6-methoxy-1-isoquinolinyl)oxy)-L-prolinamide] | – | – | – | 1420 nM | 73 nM
16 | C=C[C@@H]1C[C@]1(NC(=O)[C@@H]1C[C@@H](Oc2ncc(OC)c3ccc(Cl)cc23)CN1C(=O)[C@H](Nc1ccc(C(=O)O)cc1)C(C)(C)C)C(=O)NS(=O)(=O)C1CC1 [209 second isomer, N-(4-carboxyphenyl)-3-methyl-D-valyl-(4R)-4-((7-chloro-4-methoxy-1-isoquinolinyl)oxy)-N-((1R,2S)-1-((cyclopropylsulfonyl)carbamoyl)-2-vinylcyclopropyl)-L-prolinamide] | > 1000 nM | > 200 nM | – | – | –

From US7772180B2, “Hepatitis C virus inhibitors” (Bristol-Myers Squibb Company, priority 2006, dated 2010)
